# Reference: patent US8828451B2, “Akt sensitization of cancer cells” (University of South Florida, priority 2006, dated 2014)
# What was measured:
# [1] = tested on: Akt phosphorylation; test: Western blot of MCF-7 lysates for phosphorylated Akt, S6, p70-S6K; assay type: cell-based, human
# Method: (A) OVCAR-3 human ovarian cancer and (B) MCF-7 human breast cancer cell lines were treated with mTOR inhibitors rapamycin (OVCAR-3 cells only) or RAD001 (MCF-7 cells only). Cell lysates were probed for phosphorylated and total Akt, and phosphorylated and total S6 at the indicated time points. […] Akt substrate FKHRL1, an apoptotic protein, was also detected.
# (A) OVCAR-3 and (B) MCF-7 cells were treated with rapamycin (OVCAR-3 cells only), RAD001 (MCF-7 cells only), API-2, or a combination of API-2 with either rapamycin or RAD001. Akt phosphorylation increased in both cell lines after either rapamycin or RAD001 treatment.
# Results of Western Blot for phosphorylated Akt (p-Akt) indicate C-13 and A2780CP cells had high levels of p-Akt. Further, cell survivability after chemotherapy appears directly connected to Akt up-regulation as C-13 had both the highest p-Akt and survivability. […] This caused an increase in p-Akt within 1 hour of treatment, confirming a relationship between p-Akt and cell survival after chemotherapy.
# [2] = tested on: MCF-7 human breast cancer; test: Cell number growth over six days, MCF-7 cells; assay type: cell-based; details: MCF-7, 25 nM RAD001, 5 μM API-2 or combination
# [3] = tested on: A2780CP cells; details: drug individually or combination of both drugs
# [4] = tested on: C-13 cells; details: C-13, drug individually or combination of both drugs
# [5] = tested on: A2780CP cells; test: MTT cell survival assay, CDDP-resistant A2780CP cells; details: increasing amounts of CDDP alone, MTT 24 hr
# Method: (§1) CDDP-resistant ovarian cancer cell lines A2780CP and C-13 were treated with CDDP at indicated concentrations alone, or in combination with 10 μM API-2. Cell survival was determined 24 hr later by MTT assay.
# API-2 was further investigated to determine whether it can overcome CDDP resistance by blocking Akt signaling pathways. A2780CP and C-13 cells were treated with increasing amounts of CDDP alone or in combination with 10 μM API-2.
# [6] = tested on: C-13 cells; test: MTT cell survival assay, CDDP-resistant C-13 cells; details: C-13, increasing amounts of CDDP alone, MTT 24 hr
# Method: as §1
# A2780CP and C-13 cells were treated with increasing amounts of CDDP alone or in combination with 10 μM API-2.
smiles,measurement,setting,value
CO[C@H]1C[C@@H]2CC[C@@H](C)[C@@](O)(O2)C(=O)C(=O)N2CCCC[C@H]2C(=O)O[C@H]([C@H](C)C[C@@H]2CC[C@@H](OCCO)[C@H](OC)C2)CC(=O)[C@H](C)/C=C(\C)[C@@H](O)[C@@H](OC)C(=O)[C@H](C)C[C@H](C)/C=C/C=C/C=C/1C [RAD001],Akt phosphorylation,[1]; MCF-7,increased with longer exposure time
same,phosphorylated S6,"[1]; MCF-7, indicated time points",decreased with exposure
same,cell growth (cell numbers),[2],inhibited cell growth
CC(=O)O[C@H]1C(=O)[C@@]2(C)[C@H]([C@H](OC(=O)c3ccccc3)[C@]3(O)C[C@H](OC(=O)[C@H](O)[C@@H](NC(=O)c4ccccc4)c4ccccc4)C(C)=C1C3(C)C)[C@]1(OC(C)=O)CO[C@@H]1C[C@@H]2O [Taxol],apoptosis (Capase-Glo 3/7),[3],increased apoptosis slightly
same,apoptosis (Capase-Glo 3/7),[4],increased apoptosis slightly
"[Cl][Pt+2][Cl].[NH2-].[NH2-] [CDDP, cis-Diammine-dicholoroplatinum(II)]",effect on cell survival,[5],no significant effect on cell survival
same,effect on cell survival,[6],no significant effect on cell survival
